According to US8729055B2, “Ursolic acid derivative and pharmaceutical composition thereof” (Kaohsiung Medical University, priority 2010, dated 2014):

Tests used:
[1] = test system: NTUB1 cells (human bladder cancer cell line); assay: MTT cytotoxicity assay against NTUB1 cells; assay type: cell-based; conditions: for IC50 / % of viability at the highest concentration: NTUB1 cells; for IC50: MTT, mean±SD (n=5); for % of viability at the highest concentration: given when 50% inhibition not reached at the highest concentration (30 μM); for cytotoxic activity against NTUB1 cells, in words: comparison with the parent compound, from Table 1
Protocol: In the present embodiment, cell culture and MTT assay is used for cell viability/proliferation. NTUB1, a human bladder cancer cell line, is established from a high-grade bladder cancer. […] The cells are cultured at 37° C. in a humidified atmosphere containing 5% CO2. […] Briefly, the cells are plated at a density of 1800 cells/well in 96-well plates and incubated at 37° C. overnight before drug exposure. Cells are then cultured in the presence of graded concentrations of the test compound with or without various concentrations of cisplatin (Pharmacia & Upjohn, Milan, Italy) at 37° C. for 72 h. At the end of the culture period, 50 μL of MTT (2 mg/mL in PBS) is added to each well and allowed to react for 3 h. Following centrifugation of plates at 1000 g for 10 min, media are removed and 150 μL DMSO are added to each well. The proportions of surviving cells are determined by absorbance spectrometry at 540 nm using […]) microplate reader. The cell viability is expressed as a percentage to the viable cells of control culture condition. The IC50s of each group are calculated by the […] analysis and presented as mean±standard deviation (SD). […] In Table 1, data are presented as mean±SD (n=5). […] The control cells are treated with culture medium containing 0.1% DMSO. Cisplatin is used as a positive control.

NTUB1 cells [2] = assay: Intracellular ROS by DCFH-DA flow cytometry in NTUB1 cells; assay type: cell-based, human
Protocol: As to the quantitative analysis of intracellular ROS, the flow cytometry analysis is also adopted. Cells are plated and treated as above-mentioned conditions. Ten-micromolar dichlorofluorescein diacetate (DCFH-DA; Molecular Probes, Eugene, Oreg.) is added to the treated cells 30 min prior harvest. The cells are collected by trypsinization and washed with PBS. The green fluorescence of intracellular DCF (2′,7′-dichlorofluorescein) is then analyzed immediately by FACScan flow cytometer with a 525-nm band pass filter (Becton Dickinson).

accumulation of NO2− = assay: Experiment A: accumulation of NO2− (Griess reaction); assay type: cell-based, rat; conditions: for percentage of inhibition at 30 μM, A NO2−: given when 50% inhibition not reached; for IC50: inhibition of accumulation of NO2−
Protocol: (§1) This example illustrates the anti-inflammatory activities of compounds 5, 7-11, 20 and 21. The anti-inflammatory activities of compounds 5, 7-11, 20 and 21 are studied in vitro for their inhibitory effects on chemical mediators released from neutrophils, mast cells or macrophages of rat.
(§2) Please refer to Table 2, which illustrates the inhibitory effects of compounds 5, 7-11, 20 and 21 on the accumulation of NO2^− (Experiment A), superoxide anion formation (n mol/10^6 cells/30 min) from rat neutrophils stimulated with PMA (Experiment B), and the release of β-glucuronidase from rat peritoneal mast cells stimulated with compound 48/80 (Experiment C). In Table 2, when 50% inhibition could not be reached at the highest concentration, the percentage of inhibition at 30 μM is given.
In the Experiment A, Nitric oxide (NO) in the cell medium is determined by the Griess reaction, and N-(3-aminomethyl)benzylamide (1400 W) is used as a positive control.

A549 cells = assay: MTT cytotoxicity assay against A549 cells; assay type: cell-based, human; conditions: 72 h
Description: (§3) The data shown in FIGS. 4(A) to 4(C) represent mean±SD (n=3) for one experiment performed in triplicate. The symbols, “*” represents p<0.05, “**” represents p<0.01, and “***” represents p<0.001, compared to the control value, respectively.

PC3 cells = assay: MTT cytotoxicity assay against PC3 cells; assay type: cell-based, human; conditions: 72 h
Description: as §3

NTUB1 cells [3] = assay: Cell cycle progression by FACS in propidium iodide-stained NTUB1 cells; assay type: cell-based, human
Protocol: These cells are harvested by trypsinization, washed with 1×PBS, and fixed in ice-cold MeOH at −20° C. After overnight incubation, the cells are washed with PBS and incubated with 50 μg/mL propidium iodide (Sigma, Co) and 50 μg/mL RNase A (Sigma, Co) in PBS at room temperature for 30 min. The fractions of cells in each phase of cell cycle are analyzed using FACScan flow cytometer and Cell Quest software (Becton Dickinson).

[4] = test system: rat neutrophils stimulated with PMA; assay: Experiment B: superoxide anion formation from rat neutrophils stimulated with PMA; assay type: cell-based; conditions: PMA (3 nM)
Protocol: This example illustrates the anti-inflammatory activities of compounds 5, 7-11, 20 and 21. The anti-inflammatory activities of compounds 5, 7-11, 20 and 21 are studied in vitro for their inhibitory effects on chemical mediators released from neutrophils, mast cells or macrophages of rat. […] In Table 2, when 50% inhibition could not be reached at the highest concentration, the percentage of inhibition at 30 μM is given. In the Experiment B, superoxide anion generation is measured in terms of superoxide dismutase-inhibitable cytochrome c reduction. Neutrophils isolated from the peripheral blood of the rats are washed and suspended in Hanks' balanced salt solution (HBSS). Neutrophil suspension is preincubated with DMSO or drugs, and then superoxide dismutase (SOD) or HBSS is added into the blank and test wells, respectively. The final volume of DMSO in the reaction mixture is ≦0.5%. After addition of cytochrome c, reaction is initiated by challenge with PMA (3 nM). Thirty minutes later, the reaction is terminated by centrifugation and the absorbance changes of supernatant are monitored at 550 nm in a microplate reader. The superoxide anion generation is measured in terms of superoxide dismutase-inhibitable cytochrome c reduction. Trifluoperazine is used as a positive control for the Experiment B.

[5] = test system: rat peritoneal mast cells stimulated with compound 48/80; assay: Experiment C: release of β-glucuronidase from rat peritoneal mast cells stimulated with compound 48/80; assay type: cell-based; conditions: Mast cell; rat peritoneal mast cells, compound 48/80
Protocol: as §1, §2
In the Experiment C, Heparinized Tyrode's solution is injected into the peritoneal cavity of exsanguinated rat (Sprague-Dawley, 250-300 g). After abdominal massage, cells in the peritoneal fluid are harvested and then separated in 38% bovine serum albumin (BSA) in glucose-free Tyrode's solution. […] Fifteen min after the addition of compound 48/80 ([…]), β-glucuronidase (phenolphthalein-β-glucuronide as substrate, 550 nm) in the supernatant is determined. The total content of β-glucuronidase is measured after treatment of the cell suspension with Triton X-100, and the percentage release is calculated. […]

[6] = 50 μM, compared across the three cell lines

Compound: C[C@H]1[C@H](C)CC[C@]2(C(=O)O)CC[C@]3(C)C(=CC[C@@H]4[C@@](C)(CCC(=O)O)[C@H](C(C)(C)O)CC[C@]43C)[C@H]12 [Compound 22, 3,4-seco-Ursan-4-hydroxy-12-en-3,28-dioic acid]
- IC50 ([1]; 72 h): > 30 µM
- % of viability at the highest concentration [1]: 56.04%
- cytotoxic activity against NTUB1 cells, in words [1]: weakens cytotoxic activities

Compound: CC1CCC2(C(=O)O)CCC3(C)C(=CCC4C5(C)CCC(=O)C(C)(C)C5CCC43C)C2C1C (stereo not drawn) [Compound 18]
- IC50 ([1]; 72 h): 21.4 ± 15.5 µM
- cytotoxic activity against NTUB1 cells, in words [1]: increases cytotoxicities

Compound: CC(C)OC(=O)[C@]12CC[C@@H](C)[C@H](C)[C@H]1C1=CC[C@@H]3[C@@]4(C)CC[C@H](O)C(C)(C)[C@@H]4CC[C@@]3(C)[C@]1(C)CC2 [Compound 5, Isopropyl 3β-hydroxyurs-12-en-28-oate]
- intracellular ROS (NTUB1 cells [2]; 40 μM, 24 h, effect inhibited by NAC): significant increase in intracellular ROS
- intracellular ROS (NTUB1 cells [2]; 20 and 40 μM, 48 h, effect not inhibited by NAC): significant increase in intracellular ROS
- percentage of inhibition at 30 μM, A NO2− (accumulation of NO2−): 45.3 ± 7.0%
- cytotoxic effect at 50 μM, NTUB1 cells ([1]; 50 μM, 72 h, compared across the three cell lines): same cytotoxic effect
- IC50 ([1]; 72 h): 7.97 ± 0.48 µM
- cytotoxic effect at 50 μM, A549 cells (A549 cells; [6]): same cytotoxic effect
- cytotoxic effect against A549 cells compared with NTUB1 cells (A549 cells; MTT, FIG. 4): do not exhibit stronger cytotoxic effects
- cytotoxic effect at 50 μM, PC3 cells (PC3 cells; [6]): same cytotoxic effect
- cytotoxic effect against PC3 cells compared with NTUB1 cells (PC3 cells; MTT, FIG. 4): do not exhibit stronger cytotoxic effects
- effect on cell cycle progression (NTUB1 cells [3]; 20-40 μM, 48 h): arrests G2/M phase before accumulation of cells in sub-G1 phase
- effect on cell cycle progression (NTUB1 cells [3]; 20 and 40 μM (20-40 μM), 24 h): induces G1 phase arrest in a dose-dependent manner
- apoptotic cell death (NTUB1 cells [3]; 20 and 40 μM, 24 h): increase in the apoptotic cell death

Compound: N.N.[Cl][Pt][Cl] [cisplatin, reference compound]
- intracellular ROS (NTUB1 cells [2]; 10 μM, 24 h, effect inhibited by NAC): significant increase in intracellular ROS
- intracellular ROS (NTUB1 cells [2]; 10 μM, 48 h, effect not inhibited by NAC): significant increase in intracellular ROS
- IC50 ([1]; 72 h): 3.27 ± 0.1 µM
- effect on cell cycle progression (NTUB1 cells [3]; 10 μM, 48 h): S phase arrest
- effect on cell cycle progression (NTUB1 cells [3]; 10 and 20 μM, 24 h): dose dependent accumulation of cells in the G1 phase with a concomitant increase in the population of sub-G1 phase

Compound: COC(=O)[C@]12CC[C@@H](C)[C@H](C)[C@H]1C1=CC[C@@H]3[C@@]4(C)CC[C@H](O)C(C)(C)[C@@H]4CC[C@@]3(C)[C@]1(C)CC2 [Compound 2]
- IC50 ([1]; 72 h): 37.1 µM
- cytotoxic activity against NTUB1 cells, in words [1]: decreases the cytotoxic activity

Compound: CN1CCN(CCCN2c3ccccc3Sc3ccc(C(F)(F)F)cc32)CC1 [trifluoperazine, reference compound]
- IC50 ([4]; Neutrophil): 7.3 ± 0.6 µM

Compound: CC(C)=CCOC(=O)[C@]12CC[C@@H](C)[C@H](C)[C@H]1C1=CC[C@@H]3[C@@]4(C)CC[C@H](O)C(C)(C)[C@@H]4CC[C@@]3(C)[C@]1(C)CC2 [Compound 9, 3′-Methyl-2′-butenyl 3β-hydroxyurs-12-en-28-oate]
- percentage of inhibition at 30 μM, A NO2− (accumulation of NO2−): 45.2 ± 5.9%
- IC50 ([1]; 72 h): 10.9 ± 2.01 µM
- IC50 [4]: 6.1 ± 1.9 µM

Compound: C[C@H]1[C@H](C)CC[C@]2(C(=O)O)CC[C@]3(C)C(=CC[C@@H]4[C@@]5(C)CCC(=O)OC(C)(C)[C@@H]5CC[C@]43C)[C@H]12 [Compound 20, 4-Hydroxy-3,4-seco-ursan-12-en-28-oic acid 3,4 lactone]
- percentage of inhibition at 30 μM, A NO2− (accumulation of NO2−): 41.0 ± 9.6%
- IC50 ([1]; 72 h): > 30 µM
- % of viability at the highest concentration [1]: 63.91%
- cytotoxic activity against NTUB1 cells, in words [1]: weakens cytotoxic activities

Compound: CCOC(=O)C12CCC(C)C(C)C1C1=CCC3C4(C)CCC(O)C(C)(C)C4CCC3(C)C1(C)CC2 (stereo not drawn) [Compound 3]
- IC50 ([1]; 72 h): 13.5 µM

Compound: C[C@H]1[C@H](C)CC[C@]2(C(=O)O)CC[C@]3(C)C(=CC[C@@H]4[C@@]5(C)CC[C@H](O)C(C)(C)[C@@H]5CC[C@]43C)[C@H]12 [Compound 1, ursolic acid]
- IC50 ([1]; Homo sapiens, 72 h): 29.4 ± 1.9 µM

Compound: CCN(CC)CCCC(C)Nc1c2ccc(Cl)cc2nc2ccc(OC)cc12 (stereo not drawn) [mepacrine, reference compound]
- IC50 [5]: 12.4 ± 1.6 µM

Compound: C[C@H]1[C@H](C)CC[C@]2(C(=O)OCCO)CC[C@]3(C)C(=CC[C@@H]4[C@@]5(C)CC[C@H](O)C(C)(C)[C@@H]5CC[C@]43C)[C@H]12 [Compound 10, 2′-Hydroxyethyl 3β-hydroxyurs-12-en-28-oate]
- percentage of inhibition at 30 μM, A NO2− (accumulation of NO2−): 33.1 ± 7.2%
- IC50 ([1]; 72 h): 19.5 µM
- cytotoxic activity against NTUB1 cells, in words [1]: attenuate the cytotoxicity

Compound: CCCCCOC(=O)[C@]12CC[C@@H](C)[C@H](C)[C@H]1C1=CC[C@@H]3[C@@]4(C)CC[C@H](O)C(C)(C)[C@@H]4CC[C@@]3(C)[C@]1(C)CC2 [Compound 7, Pentyl 3β-hydroxyurs-12-en-28-oate]
- percentage of inhibition at 30 μM, A NO2− (accumulation of NO2−): 29.8 ± 3.3%
- IC50 ([1]; 72 h): 27.8 ± 1.63 µM
- IC50 [4]: 10.8 ± 2.2 µM

Compound: C[C@H]1[C@H](C)CC[C@]2(C(=O)OCC(=O)OC(C)(C)C)CC[C@]3(C)C(=CC[C@@H]4[C@@]5(C)CC[C@H](O)C(C)(C)[C@@H]5CC[C@]43C)[C@H]12 [Compound 11, Tert-Butoxycarbonylmethyl 3β-hydroxyurs-12-en-28-oate]
- IC50 (accumulation of NO2−): 21.7 ± 6.5 µM
- IC50 ([1]; 72 h): > 30 µM
- % of viability at the highest concentration [1]: 64.85%

Compound: COC(=O)C12CCC(C)C(C)C1C1=CCC3C4(C)CCC(=O)C(C)(C)C4CCC3(C)C1(C)CC2 (stereo not drawn) [Compound 19]
- IC50 ([1]; 72 h): 29.6 ± 4.65 µM

Compound: N-(3-aminomethyl)benzylamide [1400 W, reference compound]
- IC50 (accumulation of NO2−): 5 ± 1.5 µM

Compound: CCCCCCOC(=O)[C@]12CC[C@@H](C)[C@H](C)[C@H]1C1=CC[C@@H]3[C@@]4(C)CC[C@H](O)C(C)(C)[C@@H]4CC[C@@]3(C)[C@]1(C)CC2 [Compound 8, Hexyl 3β-hydroxyurs-12-en-28-oate]
- IC50 ([1]; 72 h): 26.2 ± 2.51 µM
- IC50 [4]: 11.5 ± 0.9 µM
